In ChEMBL document CHEMBL1201862, “PubChem BioAssay data set” (2004):
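Cultured in 96-well plates, cells were exposed to test compound for 48 hours across five concentrations. GI50 marks 50% less growth.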 The source made the active and inactive calls. Cut-off read from the data, not from the text of the source: active = GI50 up to about 1.1 µM and inactive = higher.

What was measured:
Test in all cases: NCI tumour cell line growth inhibition, 48 h
LXFL 529 = tested on: LXFL 529
XF498 = tested on: XF498
DLD-1 = tested on: DLD-1
SNB-78 = tested on: SNB-78
DMS-114 = tested on: DMS-114
HOP-18 = tested on: HOP-18
M19-MEL = tested on: M19-MEL
DMS-273 = tested on: DMS-273
RXF 631 = tested on: RXF 631

Compound | GI50 (LXFL 529) | GI50 (XF498) | GI50 (DLD-1) | GI50 (SNB-78) | GI50 (DMS-114) | GI50 (HOP-18) | GI50 (M19-MEL) | GI50 (DMS-273) | GI50 (RXF 631)
CC1(C)C(=O)OC(n2cc(F)c(=O)[nH]c2=O)C1=O (stereo not drawn) | > 100 µM (inactive) | > 100 µM (inactive) | > 100 µM (inactive) | > 100 µM (inactive) | > 100 µM (inactive) | > 100 µM (inactive) | > 100 µM (inactive) | – | –
Cc1ccc(C2=Nc3ccccc3NC(=O)C2)cc1 | > 100 µM (inactive) | 35.9 µM (inactive) | > 100 µM (inactive) | 72.6 µM (inactive) | 91.2 µM (inactive) | > 100 µM (inactive) | > 100 µM (inactive) | > 100 µM (inactive) | –
COc1ccc(-c2cc(O)c3cc4c(cc3n2)OCO4)cc1 | > 100 µM (inactive) | > 100 µM (inactive) | > 100 µM (inactive) | – | > 100 µM (inactive) | – | > 100 µM (inactive) | > 100 µM (inactive) | –
CC1OC(n2cc(F)c(=O)[nH]c2=O)C=CC1=O (stereo not drawn) | 16.6 µM (inactive) | – | 18.1 µM (inactive) | 18.7 µM (inactive) | 18 µM (inactive) | 18.3 µM (inactive) | 19.7 µM (inactive) | 18.6 µM (inactive) | 53.8 µM (inactive)
C=CCCOC(=O)CO[N+](=O)[O-] | > 100 µM (inactive) | > 100 µM (inactive) | > 100 µM (inactive) | – | > 100 µM (inactive) | – | > 100 µM (inactive) | > 100 µM (inactive) | –
CC1CC2OC(=O)CC2C[C@@H]1O[Si](C)(C)C(C)(C)C (stereo partly drawn) | 68.7 µM (inactive) | – | 83.4 µM (inactive) | > 100 µM (inactive) | 28 µM (inactive) | > 100 µM (inactive) | 42.8 µM (inactive) | 33.7 µM (inactive) | 44.5 µM (inactive)
COc1ccc(/C=C2\Cc3ccccc3C2=O)cc1OC | 75 µM (inactive) | > 100 µM (inactive) | > 100 µM (inactive) | > 100 µM (inactive) | 48.6 µM (inactive) | – | > 100 µM (inactive) | – | –
C=CC1[C@H]2COC(C)(C)O[C@@H]2CC(=O)C1(C)C (stereo partly drawn) | > 100 µM (inactive) | > 100 µM (inactive) | > 100 µM (inactive) | > 100 µM (inactive) | > 100 µM (inactive) | > 100 µM (inactive) | > 100 µM (inactive) | > 100 µM (inactive) | –
CO/N=C/c1cc(OC)c(OC)c(OC)c1 | > 100 µM (inactive) | > 100 µM (inactive) | > 100 µM (inactive) | > 100 µM (inactive) | > 100 µM (inactive) | > 100 µM (inactive) | > 100 µM (inactive) | > 100 µM (inactive) | > 100 µM (inactive)
CC1CC(c2ccc([N+](=O)[O-])cc2)=Nc2ccccc2[S+]1[O-] (stereo not drawn) | – | 28.7 µM (inactive) | 14.3 µM (inactive) | 43.6 µM (inactive) | 18.4 µM (inactive) | – | 15.9 µM (inactive) | 19 µM (inactive) | 20.8 µM (inactive)
COC(=O)C(Cc1nc2ccccc2nc1O)/C(=N\NC(C)(C)C)C(=O)Nc1c(C)cc(Br)cc1C (stereo not drawn) | 21.1 µM (inactive) | – | 22.2 µM (inactive) | 22.6 µM (inactive) | 24.7 µM (inactive) | – | 45.1 µM (inactive) | – | –
COC1CC(CC2CCC(C)C(C(C)C(=O)O)O2)OC2(OC(C)(C3CCC(C)(C4OC(C5OC(O)(CO)C(C)CC5C)CC4C)O3)CC2C)C1C (stereo not drawn) | 0.0535 µM (active) | 0.0423 µM (active) | 0.51 µM (active) | 1.51 µM (inactive) | < 0.0151 µM (active) | 0.284 µM (active) | 0.239 µM (active) | 0.0719 µM (active) | 0.0738 µM (active)
N#CC1(Cc2ccccc2)CCCCN1C(=O)c1ccccc1 (stereo not drawn) | > 100 µM (inactive) | > 100 µM (inactive) | > 100 µM (inactive) | > 100 µM (inactive) | > 100 µM (inactive) | > 100 µM (inactive) | > 100 µM (inactive) | > 100 µM (inactive) | > 100 µM (inactive)
CC[C@@]1(O)C(=O)OCc2c1cc1n(c2=O)Cc2cc3cc(OC)ccc3nc2-1 | 0.144 µM (active) | – | – | – | 0.01 µM (active) | – | 0.0537 µM (active) | 0.01 µM (active) | –
CC(N)Cc1ccc(F)cc1 (stereo not drawn) | > 100 µM (inactive) | – | > 100 µM (inactive) | > 100 µM (inactive) | > 100 µM (inactive) | > 100 µM (inactive) | – | > 100 µM (inactive) | > 100 µM (inactive)
CCNC(=O)OCc1c(COC(=O)NCC)c(-c2ccc(Cl)c(Cl)c2)n2c1CCC2 | 15.3 µM (inactive) | 16.1 µM (inactive) | 11.8 µM (inactive) | – | 9.02 µM (inactive) | – | 23.3 µM (inactive) | 9.48 µM (inactive) | –

Compound | GI50 (LXFL 529) | GI50 (XF498) | GI50 (DLD-1) | GI50 (SNB-78) | GI50 (DMS-114) | GI50 (HOP-18) | GI50 (M19-MEL) | GI50 (DMS-273) | GI50 (RXF 631)
C#CCCCCC#Cc1ccccc1C(=O)OC | – | 65.8 µM (inactive) | 47.2 µM (inactive) | – | 17.3 µM (inactive) | > 100 µM (inactive) | – | 38.3 µM (inactive) | –
CC1(C2CCC3(C)C(C2)C3Sc2ccccc2)OCCO1 (stereo not drawn) | 37.2 µM (inactive) | 17.1 µM (inactive) | 29 µM (inactive) | 40 µM (inactive) | 21.8 µM (inactive) | – | 19.8 µM (inactive) | 19.9 µM (inactive) | –
C[C@@H]1C[C@H]2[C@@H]3CCC4=CC(=O)C=C[C@]4(C)[C@@]3(F)[C@@H](O)C[C@]2(C)[C@@]1(O)C(=O)CO [DEXAMETHASONE] | > 100 µM (inactive) | – | > 100 µM (inactive) | – | 95.9 µM (inactive) | – | > 100 µM (inactive) | – | –
CCOC(=O)[C@H](Cc1ccccc1)NC(=O)c1nc[nH]c1[N+](=O)[O-] | > 100 µM (inactive) | – | > 100 µM (inactive) | – | > 100 µM (inactive) | – | > 100 µM (inactive) | > 100 µM (inactive) | –
Cc1cc2c(=O)c3ccccc3[nH]c2c(C(N)=O)c1C | > 100 µM (inactive) | > 100 µM (inactive) | > 100 µM (inactive) | > 100 µM (inactive) | > 100 µM (inactive) | > 100 µM (inactive) | > 100 µM (inactive) | – | > 100 µM (inactive)
Nc1nc(N)c(CCCCc2ccccc2)c(C=O)n1 | – | – | 20.1 µM (inactive) | 22.9 µM (inactive) | 15.9 µM (inactive) | 40.8 µM (inactive) | 14.8 µM (inactive) | 17.2 µM (inactive) | 43.5 µM (inactive)
CSC1NC=Nc2c1sc(=S)n2-c1ccccc1 (stereo not drawn) | > 100 µM (inactive) | > 100 µM (inactive) | > 100 µM (inactive) | 43.5 µM (inactive) | > 100 µM (inactive) | > 100 µM (inactive) | > 100 µM (inactive) | > 100 µM (inactive) | –
CCOC(=O)c1c(C)c(C)n2c1NC(=O)C2 | > 100 µM (inactive) | 0.073 µM (active) | > 100 µM (inactive) | – | > 100 µM (inactive) | > 100 µM (inactive) | > 100 µM (inactive) | > 100 µM (inactive) | > 100 µM (inactive)
CCC1=CCN(c2cc(C)ccn2)OC1c1ccccc1 (stereo not drawn) | 27 µM (inactive) | 22.9 µM (inactive) | 34 µM (inactive) | 43.9 µM (inactive) | 56.2 µM (inactive) | > 100 µM (inactive) | 34.4 µM (inactive) | 43.6 µM (inactive) | 25.4 µM (inactive)
COc1cc([C@@H]2c3cc4c(cc3C[C@H]3COC(=O)[C@@H]32)OCO4)cc(OC)c1OC [DESOXYPODOPHYLLOTOXIN] | – | 0.00859 µM (active) | 0.00843 µM (active) | 0.00875 µM (active) | 0.00698 µM (active) | 33.6 µM (inactive) | 0.00986 µM (active) | 0.00728 µM (active) | –
C=C1C(=O)O[C@H]2C[C@@H](C)[C@@H]3CC(=O)OC[C@@]3(C)CC12 (stereo partly drawn) | – | – | 23.4 µM (inactive) | – | – | 36.5 µM (inactive) | 34.5 µM (inactive) | 28.6 µM (inactive) | –
O=C1N=C2N=C(c3ccc(Cl)cc3)N(c3ccc(Cl)cc3)N2Sc2ccccc21 | > 100 µM (inactive) | 40.9 µM (inactive) | > 100 µM (inactive) | > 100 µM (inactive) | > 100 µM (inactive) | > 100 µM (inactive) | > 100 µM (inactive) | 67.1 µM (inactive) | –
NC1=NC(c2ccccc2)CC(c2cc(Cl)ccc2O)=N1 (stereo not drawn) | 15 µM (inactive) | 19.6 µM (inactive) | 13.2 µM (inactive) | 19.5 µM (inactive) | 12.7 µM (inactive) | 17.7 µM (inactive) | 14.5 µM (inactive) | 13 µM (inactive) | –
NC(=O)COc1ccccc1 | > 100 µM (inactive) | > 100 µM (inactive) | > 100 µM (inactive) | > 100 µM (inactive) | > 100 µM (inactive) | – | > 100 µM (inactive) | > 100 µM (inactive) | > 100 µM (inactive)
CC(=O)Oc1ccc(CO)cc1OC(C)=O | > 100 µM (inactive) | 92.9 µM (inactive) | > 100 µM (inactive) | > 100 µM (inactive) | 40.3 µM (inactive) | > 100 µM (inactive) | > 100 µM (inactive) | > 100 µM (inactive) | 63.2 µM (inactive)
